From ChEMBL document CHEMBL1800055, “Orally active MMP-1 sparing α-tetrahydropyranyl and α-piperidinyl sulfone matrix metalloproteinase (MMP) inhibitors with efficacy in cancer, arthritis, and cardiovascular disease” (J Med Chem, 2010)

Experiments:
Interstitial collagenase = target: T1, Interstitial collagenase (Homo sapiens, UniProt P03956); assay type: cell-based, HT-1080
T1 sequence (P03956 whole entry): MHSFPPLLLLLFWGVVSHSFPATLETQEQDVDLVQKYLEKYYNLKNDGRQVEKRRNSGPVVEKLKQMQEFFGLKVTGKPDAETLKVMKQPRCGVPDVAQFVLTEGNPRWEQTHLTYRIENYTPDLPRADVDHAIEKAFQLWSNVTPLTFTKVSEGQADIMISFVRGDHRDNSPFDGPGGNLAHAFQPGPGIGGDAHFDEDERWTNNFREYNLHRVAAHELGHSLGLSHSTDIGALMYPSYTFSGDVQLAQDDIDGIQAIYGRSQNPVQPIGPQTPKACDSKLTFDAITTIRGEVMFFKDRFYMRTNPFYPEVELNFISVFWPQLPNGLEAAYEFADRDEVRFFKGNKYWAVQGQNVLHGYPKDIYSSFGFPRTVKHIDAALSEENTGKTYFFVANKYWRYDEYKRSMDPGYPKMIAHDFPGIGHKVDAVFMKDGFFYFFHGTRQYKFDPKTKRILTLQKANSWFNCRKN

Collagenase 3 = Collagenase 3 (Homo sapiens, UniProt P45452)
[1] = target: Matrix metalloproteinase-9 (Homo sapiens, UniProt P14780)
[2] = target: 72 kDa type IV collagenase (Homo sapiens, UniProt P08253)
[3] = Oral bioavailability in rat at 20 mg/kg; assay type: ADME, organism-based; settings: in vivo
Neutrophil collagenase = Neutrophil collagenase (Homo sapiens, UniProt P22894)
Stromelysin-1 = Stromelysin-1 (Homo sapiens, UniProt P08254)
Rattus norvegicus [4] = experiment: Plasma concentration in rat at 20 mg/kg, po; assay type: ADME, organism-based; set-up: dose 20 mg/kg, route oral; settings: in vivo; note: time not given here
[5] = Cmax in rat at 20 mg/kg, po; assay type: ADME, organism-based; set-up: dose 20 mg/kg, route oral; settings: in vivo
[6] = Half life in rat at 20 mg/kg, po; assay type: ADME, organism-based; set-up: dose 20 mg/kg, route oral; settings: in vivo
[7] = target: Matrix metalloproteinase-14 (Homo sapiens, UniProt P50281)
[8] = Half life in rat at 10 mg/mL, iv and po; assay type: ADME, organism-based; settings: in vivo
[9] = Oral bioavailability in rat at 10 mg/mL; assay type: ADME, organism-based; settings: in vivo
Rattus norvegicus [10] = experiment: Plasma concentration in rat at 10 mg/mL, iv and po; assay type: ADME, organism-based; settings: in vivo; note: time not given here
[11] = Cmax in rat at 10 mg/mL, iv and po; assay type: ADME, organism-based; settings: in vivo

Chain of Matrix metalloproteinase-9 (P14780 whole entry): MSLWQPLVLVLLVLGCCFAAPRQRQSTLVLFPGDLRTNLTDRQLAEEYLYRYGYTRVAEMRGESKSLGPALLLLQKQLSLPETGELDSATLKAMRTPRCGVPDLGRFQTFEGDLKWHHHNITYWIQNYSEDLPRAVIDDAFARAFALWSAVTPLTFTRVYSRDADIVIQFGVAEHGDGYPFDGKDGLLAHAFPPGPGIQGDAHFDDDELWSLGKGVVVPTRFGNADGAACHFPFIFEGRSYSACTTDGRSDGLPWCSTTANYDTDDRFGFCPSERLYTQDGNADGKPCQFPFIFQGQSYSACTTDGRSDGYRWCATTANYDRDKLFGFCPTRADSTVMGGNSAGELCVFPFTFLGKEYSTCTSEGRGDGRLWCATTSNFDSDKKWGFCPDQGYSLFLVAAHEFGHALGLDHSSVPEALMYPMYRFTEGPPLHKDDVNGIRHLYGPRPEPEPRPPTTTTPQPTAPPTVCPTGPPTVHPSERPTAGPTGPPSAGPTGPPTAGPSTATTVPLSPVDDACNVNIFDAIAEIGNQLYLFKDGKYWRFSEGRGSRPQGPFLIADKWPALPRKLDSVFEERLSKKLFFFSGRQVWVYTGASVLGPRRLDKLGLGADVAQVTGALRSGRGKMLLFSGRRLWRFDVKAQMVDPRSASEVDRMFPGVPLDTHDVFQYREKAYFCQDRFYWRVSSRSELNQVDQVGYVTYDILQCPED
Chain of Stromelysin-1 (P08254 whole entry): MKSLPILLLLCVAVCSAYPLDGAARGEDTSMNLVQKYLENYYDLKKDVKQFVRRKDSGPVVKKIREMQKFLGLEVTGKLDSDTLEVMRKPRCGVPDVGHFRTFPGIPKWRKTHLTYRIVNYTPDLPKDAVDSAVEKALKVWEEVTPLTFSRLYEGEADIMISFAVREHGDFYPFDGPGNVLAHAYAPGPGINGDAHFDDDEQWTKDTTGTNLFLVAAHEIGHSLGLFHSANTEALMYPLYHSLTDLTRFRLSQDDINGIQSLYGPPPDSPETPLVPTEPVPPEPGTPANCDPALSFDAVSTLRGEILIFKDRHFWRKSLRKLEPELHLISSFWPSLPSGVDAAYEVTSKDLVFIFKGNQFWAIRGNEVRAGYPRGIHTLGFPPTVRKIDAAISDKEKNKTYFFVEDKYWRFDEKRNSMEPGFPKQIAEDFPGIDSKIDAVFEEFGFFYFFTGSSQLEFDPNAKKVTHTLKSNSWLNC
Chain of 72 kDa type IV collagenase (P08253 whole entry): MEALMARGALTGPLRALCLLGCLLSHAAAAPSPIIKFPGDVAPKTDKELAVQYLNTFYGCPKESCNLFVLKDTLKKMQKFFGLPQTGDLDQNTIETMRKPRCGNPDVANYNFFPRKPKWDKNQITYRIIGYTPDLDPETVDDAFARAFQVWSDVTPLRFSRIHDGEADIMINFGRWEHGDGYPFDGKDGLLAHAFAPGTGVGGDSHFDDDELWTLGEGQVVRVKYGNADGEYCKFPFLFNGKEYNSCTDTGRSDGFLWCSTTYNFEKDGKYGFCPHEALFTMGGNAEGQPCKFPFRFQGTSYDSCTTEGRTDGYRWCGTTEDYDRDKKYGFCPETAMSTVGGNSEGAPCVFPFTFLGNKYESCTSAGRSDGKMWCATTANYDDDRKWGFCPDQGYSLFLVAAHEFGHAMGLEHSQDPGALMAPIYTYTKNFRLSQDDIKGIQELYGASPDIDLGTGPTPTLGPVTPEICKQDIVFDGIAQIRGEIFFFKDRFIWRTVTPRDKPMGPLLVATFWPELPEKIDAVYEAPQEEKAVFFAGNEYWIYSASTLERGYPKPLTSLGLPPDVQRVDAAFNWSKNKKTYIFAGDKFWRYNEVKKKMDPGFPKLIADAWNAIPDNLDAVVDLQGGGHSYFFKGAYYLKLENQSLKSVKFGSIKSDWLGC
Chain of Neutrophil collagenase (P22894 whole entry): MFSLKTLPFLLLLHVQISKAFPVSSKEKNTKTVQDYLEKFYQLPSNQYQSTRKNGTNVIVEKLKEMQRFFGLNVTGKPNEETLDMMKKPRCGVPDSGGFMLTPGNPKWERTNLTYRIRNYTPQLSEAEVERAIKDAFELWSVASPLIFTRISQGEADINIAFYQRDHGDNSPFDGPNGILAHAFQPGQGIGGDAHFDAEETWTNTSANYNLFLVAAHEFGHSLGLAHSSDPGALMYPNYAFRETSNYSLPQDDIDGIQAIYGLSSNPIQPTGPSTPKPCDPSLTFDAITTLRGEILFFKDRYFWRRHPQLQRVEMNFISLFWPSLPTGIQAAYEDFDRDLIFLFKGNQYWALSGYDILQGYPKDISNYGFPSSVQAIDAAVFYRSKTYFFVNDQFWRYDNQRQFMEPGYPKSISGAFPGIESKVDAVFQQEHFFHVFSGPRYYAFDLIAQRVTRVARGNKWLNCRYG

Structure (SMILES)	IC50 (Interstitial collagenase) [nM]	IC50 (Collagenase 3) [nM]	IC50 [1] [nM]	IC50 [2] [nM]	bioavailability [3] [%]	IC50 (Neutrophil collagenase) [nM]	IC50 (Stromelysin-1) [nM]	Cp (Rattus norvegicus [4]) [ng/mL]	Cmax [5] [ng/mL]	half-life [6] [h]	IC50 [7] [nM]	half-life [8] [h]	bioavailability [9] [%]	Cp (Rattus norvegicus [10]) [ng/mL]	Cmax [11] [ng/mL]
CSc1ccc(Oc2ccc(S(=O)(=O)C3(C(=O)NO)CCOCC3)cc2)cc1	2500	< 0.1	< 0.1	< 0.1	–	–	–	–	–	–	–	–	–	–	–
O=C(NO)C1(S(=O)(=O)c2ccc(Oc3ccc(C(F)(F)F)cc3)cc2)CCNCC1	> 10000	1.2	–	1.7	12.4	2	64.7	150	540	1.88	160	–	–	–	–
COc1ccc(Oc2ccc(S(=O)(=O)C3(C(=O)NO)CCN(Cc4ccccn4)CC3)cc2)cc1	4500	0.3	–	0.2	–	1.9	20.6	160	–	–	–	–	–	–	–
O=C(NO)C1(S(=O)(=O)c2ccc(Oc3ccc4c(c3)OCCO4)cc2)CCN(C2CC2)CC1	6000	0.5	–	0.2	16.6	1.5	21.5	15	9460	3.3	–	–	–	–	–
O=C(NO)C1(S(=O)(=O)c2ccc(Oc3ccc(Cl)c(Cl)c3)cc2)CCOCC1	–	–	–	–	–	4	35	–	–	–	–	–	–	–	–
C#CCN1CCC(C(=O)NO)(S(=O)(=O)c2ccc(Oc3ccc(C(C)C)cc3)cc2)CC1	> 10000	0.25	–	0.1	23.8	1.6	32.6	21	5310	0.73	–	–	–	–	–
O=C(NO)C1(S(=O)(=O)c2ccc(Oc3cccc(C(F)(F)F)c3)cc2)CCOCC1	> 10000	0.8	–	0.8	–	30	55.3	–	–	–	–	1.12	18.3	257	1140
O=C(NO)C1(S(=O)(=O)c2ccc(Oc3ccc4c(c3)OCO4)cc2)CCN(C2CC2)CC1	1000	0.3	< 0.1	0.5	–	–	–	206	13100	–	–	–	–	–	–
O=C(NO)C1(S(=O)(=O)c2ccc(Oc3ccc(O)cc3)cc2)CCOCC1	400	0.3	< 0.1	0.2	–	–	–	–	–	–	1.71	–	–	–	–
COCCN1CCC(C(=O)NO)(S(=O)(=O)c2ccc(Oc3ccc(OC(C)C)cc3)cc2)CC1	2000	0.5	–	0.3	–	–	–	–	–	–	–	–	–	–	–
O=C(NO)C1(S(=O)(=O)c2ccc(Oc3ccc(Cl)cc3)cc2)CCOCC1	–	–	–	–	–	1.2	18.1	–	–	–	–	1.5	45.8	506	3120
O=C(NO)C1(S(=O)(=O)c2ccc(Oc3ccncc3)cc2)CCOCC1	–	–	–	0.5	–	–	–	–	–	–	–	0.25	42.3	3	1610
COCCN1CCC(C(=O)NO)(S(=O)(=O)c2ccc(Oc3ccc(C(C)C)cc3)cc2)CC1	10000	0.2	–	0.1	–	–	–	–	–	–	–	–	–	–	–
C#CCN1CCC(C(=O)NO)(S(=O)(=O)c2ccc(Oc3ccc(OC)cc3)cc2)CC1	–	–	–	–	36.9	10	0.2	192	–	1.01	–	–	–	–	–
C#CCN1CCC(C(=O)NO)(S(=O)(=O)c2ccc(Oc3ccc4c(c3)OCO4)cc2)CC1	2000	0.6	–	–	30.1	1.3	18.1	134	–	0.843	–	–	–	–	–
O=C(NO)C1(S(=O)(=O)c2ccc(Oc3ccccc3)cc2)CCOCC1	–	0.1	–	0.1	–	0.4	7	–	–	–	–	1.74	5.8	50	872
O=C(NO)C1(S(=O)(=O)c2ccc(Oc3ccc4c(c3)OCO4)cc2)CCNCC1	–	–	–	–	–	2.4	35	128	1550	–	–	–	–	–	–
CC(C)N1CCC(C(=O)NO)(S(=O)(=O)c2ccc(Oc3ccc(C(F)(F)F)cc3)cc2)CC1	> 10000	5.5	–	0.3	48.3	1.4	40	429	5120	2.08	–	–	–	–	–

Structure (SMILES)	IC50 (Interstitial collagenase) [nM]	IC50 (Collagenase 3) [nM]	IC50 [1] [nM]	IC50 [2] [nM]	bioavailability [3] [%]	IC50 (Neutrophil collagenase) [nM]	IC50 (Stromelysin-1) [nM]	Cp (Rattus norvegicus [4]) [ng/mL]	Cmax [5] [ng/mL]	half-life [6] [h]	IC50 [7] [nM]	half-life [8] [h]	bioavailability [9] [%]	Cp (Rattus norvegicus [10]) [ng/mL]	Cmax [11] [ng/mL]
CN1CCC(C(=O)NO)(S(=O)(=O)c2ccc(Oc3ccc(OC(F)(F)F)cc3)cc2)CC1	> 10000	0.6	0.18	< 0.1	–	–	–	–	–	–	–	–	–	–	–
CCN1CCC(C(=O)NO)(S(=O)(=O)c2ccc(Oc3ccc(C(F)(F)F)cc3)cc2)CC1	> 10000	0.6	–	0.2	–	1.4	36.9	–	–	–	–	–	–	–	–
CC(C)N1CCC(C(=O)NO)(S(=O)(=O)c2ccc(Oc3ccc(OC(F)(F)F)cc3)cc2)CC1	> 10000	< 0.1	< 0.1	< 0.1	–	0.4	–	–	–	–	–	–	–	–	–
CC(C)c1ccc(Oc2ccc(S(=O)(=O)C3(C(=O)NO)CCN(C(C)C)CC3)cc2)cc1	> 10000	2.7	–	1	–	1.8	22.5	–	–	–	–	–	–	–	–
COCCN1CCC(C(=O)NO)(S(=O)(=O)c2ccc(Oc3ccc4c(c3)OCO4)cc2)CC1	2400	0.2	–	0.25	–	1.2	20	–	–	–	4	–	–	–	–
CC(C)Oc1ccc(Oc2ccc(S(=O)(=O)C3(C(=O)NO)CCOCC3)cc2)cc1	300	0.1	< 0.1	< 0.1	–	–	–	–	–	–	10.5	–	–	–	–
O=C(NO)C1(S(=O)(=O)c2ccc(Oc3ccc(OC(F)(F)F)cc3)cc2)CCNCC1	10000	0.1	–	< 0.1	6.7	0.7	–	223	630	1.78	–	–	–	–	–
CCOc1ccc(Oc2ccc(S(=O)(=O)C3(C(=O)NO)CCN(C4CC4)CC3)cc2)cc1	1000	0.25	0.2	0.1	–	–	–	–	–	–	–	–	–	–	–
CCOCCN1CCC(C(=O)NO)(S(=O)(=O)c2ccc(Oc3ccc(OC(F)(F)F)cc3)cc2)CC1	5900	–	–	–	14.7	–	–	3040	3130	1.66	–	–	–	–	–
CC(C)Oc1ccc(Oc2ccc(S(=O)(=O)C3(C(=O)NO)CCN(C4CC4)CC3)cc2)cc1	770	0.1	–	0.1	–	–	–	–	–	–	–	–	–	–	–
O=C(NO)C1(S(=O)(=O)c2ccc(Oc3ccc(C(F)(F)F)cc3)cc2)CCN(CCN2CCOCC2)CC1	–	0.35	–	0.3	2.6	–	–	73	147	0.94	–	–	–	–	–
O=C(NO)C1(S(=O)(=O)c2ccc(Oc3ccc(-c4ccccc4)cc3)cc2)CCOCC1	1400	0.25	–	0.1	–	2.4	50	–	–	–	–	–	–	–	–
O=C(NO)C1(S(=O)(=O)c2ccc(Oc3cccc(Cl)c3)cc2)CCOCC1	–	–	–	–	–	1.8	18.1	–	–	–	4.5	–	–	–	–
CC(=O)N1CCC(C(=O)NO)(S(=O)(=O)c2ccc(Oc3ccc(OC(F)(F)F)cc3)cc2)CC1	–	–	–	–	4	1.6	18.1	72	159	1.06	9	–	–	–	–
O=C(NO)C1(S(=O)(=O)c2ccc(Oc3ccc(OC(F)(F)F)cc3)cc2)CCN(CCO)CC1	4500	< 0.1	–	< 0.1	21.9	–	–	570	1380	1.39	–	–	–	–	–
O=C(NO)C1(S(=O)(=O)c2ccc(Oc3ccc(SC(F)(F)F)cc3)cc2)CCOCC1	5000	–	–	0.4	–	0.4	–	–	–	–	–	1.71	49	3113	7270
C#CCN1CCC(C(=O)NO)(S(=O)(=O)c2ccc(Oc3ccc(OC(F)(F)F)cc3)cc2)CC1	2600	0.2	< 0.1	< 0.1	–	–	–	–	–	–	–	–	–	–	–
O=C(NO)C1(S(=O)(=O)c2ccc(Oc3ccc(OC(F)(F)F)cc3)cc2)CCOCC1	–	–	–	–	–	0.9	35	–	–	–	10.6	1.87	35.9	1172	8580
